Experiments:
[1] = molecular target: T1, ZmSIRK1 (ZmSIRK1^737-1045) (Zea mays, UniProt K7VIQ3); assay: isothermal titration calorimetry; co-crystal structure; format: binding
T1 construct: gene ZEAMMB73_Zm00001d047570; kinase domain Ser737-Ser1045 (full length 1045 aa; KD 762-1040), E. coli BL21(DE3)-R3-pRARE2, pNIC28a-Bsa4, 6xHis tag removed by TEV; forward primer encodes S737-V-V-F-T-A-E (translated); motifs 907DYS909, 933PPE935; model residues 744-972, 977-1000, 1009-1045

[2] = molecular target: T1, ZmSIRK1 (ZmSIRK1^737-1045); assay: isothermal titration calorimetry; format: binding

T1 sequence (K7VIQ3 entry or part of it): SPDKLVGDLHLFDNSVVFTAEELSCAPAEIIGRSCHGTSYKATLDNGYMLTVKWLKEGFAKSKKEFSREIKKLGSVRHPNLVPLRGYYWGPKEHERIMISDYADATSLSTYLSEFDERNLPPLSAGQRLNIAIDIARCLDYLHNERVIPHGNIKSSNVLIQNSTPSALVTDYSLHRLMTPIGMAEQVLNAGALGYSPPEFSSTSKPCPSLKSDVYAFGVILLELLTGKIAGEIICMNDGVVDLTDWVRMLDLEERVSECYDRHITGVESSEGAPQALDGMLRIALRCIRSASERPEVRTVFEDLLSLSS

## Nc1ncnc2c1ncn2[C@@H]1O[C@H](COP(=O)(O)OP(=O)(O)NP(=O)(O)O)[C@@H](O)[C@H]1O [AMP-PNP]
[1]
  Kd: 2800 nM

## CC(C)n1nc(-c2ccc3oc(N)nc3c2)c2c(N)ncnc21 [INK 128]
[2]
  Kd: 1760 nM

## Nc1ncnc2c1c(-c1cnc3[nH]ccc3c1)nn2C1CCCC1 [PP121]
[2]
  Kd: 1990 nM
